“And” between values parts separate entries of the source, which are not always exact repeats. Equal entries are not always repeated. Inconclusive results and toxic doses are left out. Rule as the data show it: active = T/C of 150% or more; inactive = T/C below 125%.
System: L1210 leukemia ip in BDF1 mice, survival T/C
Assay: NCI In Vivo Anticancer Drug Screen. Data for tumor model L1210 Leukemia (intraperitoneal) in B6D2F1 (BDF1) mice
Conditions: endpoint: mean survival time, higher = longer survival
Method in brief: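 Mice bearing the transplanted tumor received compound or vehicle. Survival of the treated group was divided by that of the vehicle-treated control group to give the ratio.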

[1] = dose: 100.0 mg/kg/injection, schedule: Q01DX001 (ip), vehicle: carboxymethylcellulose (CMC)
[2] = dose: 200.0 mg/kg/injection, schedule: Q01DX001 (ip), vehicle: carboxymethylcellulose (CMC)
[3] = dose: 400.0 mg/kg/injection, schedule: Q01DX001 (ip), vehicle: carboxymethylcellulose (CMC)

Measured: T/C

c1ccc2c(CNC3CCCCC3)c[nH]c2c1
inactive: dose: 50.0 mg/kg/injection, schedule: Q01DX001 (ip), vehicle: carboxymethylcellulose (CMC) 90 % of control | dose: 100.0 mg/kg/injection, schedule: Q04DX003 (ip), vehicle: Klucel (hydroxypropylcellulose) (HPC) 90 % of control | dose: 200.0 mg/kg/injection, schedule: Q04DX003 (ip), vehicle: Klucel (hydroxypropylcellulose) (HPC) 97 % of control | dose: 400.0 mg/kg/injection, schedule: Q04DX003 (ip), vehicle: Klucel (hydroxypropylcellulose) (HPC) 98 % of control

COc1cccc(/C(C)=N\OC(=O)N(C)C)c1
inactive: [1] 95 % of control | [2] 95 % of control | [3] 98 % of control

O=C(O)c1ccc(OCCOc2ccc([N+](=O)[O-])cc2)c(Cl)c1
inactive: [1] 95 % of control and 105 % of control | dose: 100.0 mg/kg/injection, schedule: Q01DX009 (ip), vehicle: carboxymethylcellulose (CMC) 92 % of control and 89 % of control | dose: 100.0 mg/kg/injection, schedule: Q04DX002 (ip), vehicle: gum acacia 101 % of control | dose: 100.0 mg/kg/injection, schedule: Q04DX003 (ip), vehicle: carboxymethylcellulose (CMC) 95 % of control and 86 % of control | [2] 101 % of control and 103 % of control | dose: 200.0 mg/kg/injection, schedule: Q01DX009 (ip), vehicle: carboxymethylcellulose (CMC) 93 % of control and 100 % of control | dose: 200.0 mg/kg/injection, schedule: Q04DX002 (ip), vehicle: gum acacia 98 % of control and 99 % of control | dose: 200.0 mg/kg/injection, schedule: Q04DX003 (ip), vehicle: carboxymethylcellulose (CMC) 95 % of control and 90 % of control | [3] 100 % of control | dose: 400.0 mg/kg/injection, schedule: Q04DX002 (ip), vehicle: gum acacia 94 % of control and 98 % of control | dose: 400.0 mg/kg/injection, schedule: Q04DX003 (ip), vehicle: carboxymethylcellulose (CMC) 90 % of control and 91 % of control

O=[N+]([O-])/C=C\c1ccc(/C=C/[N+](=O)[O-])cc1
inactive: dose: 1.5 mg/kg/injection, schedule: Q01DX009 (ip), vehicle: other 95 % of control | dose: 1.5 mg/kg/injection, schedule: Q04DX003 (ip), vehicle: other 101 % of control | dose: 3.0 mg/kg/injection, schedule: Q01DX009 (ip), vehicle: other 93 % of control | dose: 3.0 mg/kg/injection, schedule: Q04DX003 (ip), vehicle: other 101 % of control | dose: 6.0 mg/kg/injection, schedule: Q04DX003 (ip), vehicle: other 98 % of control

COc1ccc(/C=N/NC(=O)CNC(=O)c2ccc(Cl)cc2Cl)cc1OC
inactive: dose: 50.0 mg/kg/injection, schedule: Q01DX009 (ip), vehicle: saline with Tween-80 91 % of control | dose: 100.0 mg/kg/injection, schedule: Q01DX009 (ip), vehicle: saline with Tween-80 86 % of control | dose: 200.0 mg/kg/injection, schedule: Q01DX009 (ip), vehicle: saline with Tween-80 86 % of control

C=CCN(CC=C)c1nc(-c2ccccc2)nc(-c2ccccc2)n1
inactive: dose: 25.6 mg/kg/injection, schedule: Q04DX002 (ip), vehicle: saline with Tween-80 93 % of control | dose: 64.0 mg/kg/injection, schedule: Q04DX002 (ip), vehicle: saline with Tween-80 93 % of control | dose: 100.0 mg/kg/injection, schedule: Q04DX003 (ip), vehicle: saline with Tween-80 92 % of control | dose: 160.0 mg/kg/injection, schedule: Q04DX002 (ip), vehicle: saline with Tween-80 93 % of control | dose: 200.0 mg/kg/injection, schedule: Q04DX003 (ip), vehicle: saline with Tween-80 92 % of control | dose: 400.0 mg/kg/injection, schedule: Q04DX002 (ip), vehicle: saline with Tween-80 89 % of control | dose: 400.0 mg/kg/injection, schedule: Q04DX003 (ip), vehicle: saline with Tween-80 92 % of control

CN(C)CCCCNc1ccc(NCCCCN(C)C)c2c1C(=O)c1c(O)ccc(O)c1C2=O
inactive: dose: 100.0 mg/kg/injection, schedule: Q04DX002 (ip), vehicle: saline 99 % of control | dose: 200.0 mg/kg/injection, schedule: Q04DX002 (ip), vehicle: saline 105 % of control

C[n+]1cccc(C(=O)N/N=C/c2ccccc2)c1
inactive: dose: 100.0 mg/kg/injection, schedule: Q01DX001 (ip), vehicle: saline with Tween-80 96 % of control | dose: 200.0 mg/kg/injection, schedule: Q01DX001 (ip), vehicle: saline with Tween-80 96 % of control | dose: 400.0 mg/kg/injection, schedule: Q01DX001 (ip), vehicle: saline with Tween-80 96 % of control

C#CCOCCCC(=O)O
inactive: dose: 100.0 mg/kg/injection, schedule: Q01DX009 (ip), vehicle: saline 91 % of control | dose: 200.0 mg/kg/injection, schedule: Q01DX009 (ip), vehicle: saline 89 % of control
